From US20210023099A1, “COMBINATION THERAPY WITH A BET INHIBITOR AND A PROTEASOME INHIBITOR” (Hoffmann-La Roche Inc., priority 2018, published 2021)
Values joined by “and” are separate entries in the source; they are usually repeats but may differ in a detail not shown here. Equal values may be shown once.

Columns and labels:
MM1S MM xenografts = experiment: In vivo antitumor efficacy against MM1S MM xenografts; conditions: Day 28, s.c. MM1s xenografts in female CIEA NOG mice, bortezomib 0.5 mg/kg iv 2 x Q7D; for Tumor Regression % / TGI % (Tumor growth inhibition): RG6146 30 mg/kg ip QD D14-28; for TGI % (Tumor growth inhibition): vs control; for npTCR (non-parametric Treatment to Control Ratio): RG6146 30 mg/kg ip QD, CI printed in the line below
Experimental: The in vivo antitumor efficacy of BET inhibitor RG6146 in combination with proteasome inhibitor bortezomib was evaluated against MM1S MM xenografts.
(§1) The original MM1s human Multiple Myeloma cell line (MM) was purchased from ATCC (Manassas, Va., USA). Expansion of tumor cells for the transplantation was done by the TAP CompacT CellBase Cell Culture Roboter according to the protocol. Tumor cell line was routinely cultured in RPMI 1640 medium, FCS 10% and L-Glutamin 2 mM at 37° C. in a water-saturated atmosphere at 5% CO2. Culture passage was performed with trypsin/EDTA 1× splitting twice/week and passage 2 used for transplantation.
(§2) Female CIEA NOG mice (Taconic), age 5-6 weeks at arrival, maintained under specific-pathogen-free condition with daily cycles of 12 h light/12 h darkness according to committed guidelines. Experimental study protocol was reviewed and approved by local government. After arrival animals were maintained in animal facility for one week to get accustomed to new environment and for observation. Continuous health monitoring was carried out on regular basis. Diet food and autoclaved water were provided ad libitum.
(§3) Animals were controlled daily for clinical symptoms and detection of adverse effects. For monitoring throughout the experiment body weight of animals was documented.
(§4) Animal treatment started after randomisation when median tumor size was about 100 mm^3. The vehicle was administered ip once daily (QD) on D14-28. BET inhibitor RG6146 ip treatment at 30 mg/kg was done as single agent and in combination on D14-28. Finally, proteasome inhibitor bortezomib was given i.v. at 0.5 mg/kg as single agent and in combination twice a week for two weeks.
(§5) MM1s human MM cells were s.c. inoculated with Matrigel onto female CIEA-NOG mice. Tumor bearing mice were randomized 14 days later to the indicated study groups and compound treatment initiated. Tumor bearing animals were treated with vehicle control, with the BET inhibitor RG6146 at 30 mg/kg or with proteasome inhibitor bortezomib at 0.5 mg/kg as single agent and in combination thereof.

OPM-2 MM xenografts = experiment: In vivo antitumor efficacy against OPM-2 MM xenografts; conditions: Day 31, s.c. OPM-2 xenografts in female Scid beige mice, bortezomib 0.5 mg/kg iv 2xQ7D; for Tumor Regression % / TGI % (Tumor growth inhibition): RG6146 30 mg/kg ip QD D17-31; for TGI % (Tumor growth inhibition): vs control; for npTCR (non-parametric Treatment to Control Ratio) / Tumor free animal (complete tumor remission): RG6146 30 mg/kg ip QD; for npTCR (non-parametric Treatment to Control Ratio): CI printed in the lines below; for Tumor free animal (complete tumor remission): animals tumor free / group
Experimental: The in vivo antitumor efficacy of BET inhibitor RG6146 in combination with proteasome inhibitor bortezomib was evaluated against OPM-2 MM xenografts.
as §1, with “OPM-2” for “MM1s”
as §2, with “Scid beige” for “CIEA NOG”, “(Charles River),” for “(Taconic),”, “6-7” for “5-6”
as §3
as §4, with “115” for “100”, “D17-31.” for “D14-28.”
as §5, with “OPM-2 human” for “MM1s human”, “female Scid beige” for “female CIEA-NOG”, “randomized 17” for “randomized 14”

| SMILES | Tumor Regression % (MM1S MM xenografts) [%] | TGI % (Tumor growth inhibition) (MM1S MM xenografts) [%] | npTCR (non-parametric Treatment to Control Ratio) (MM1S MM xenografts) | Tumor Regression % (OPM-2 MM xenografts) [%] | TGI % (Tumor growth inhibition) (OPM-2 MM xenografts) [%] | npTCR (non-parametric Treatment to Control Ratio) (OPM-2 MM xenografts) | Tumor free animal (complete tumor remission) (OPM-2 MM xenografts) |
| --- | --- | --- | --- | --- | --- | --- | --- |
| Cc1sc2c(c1C)C(c1ccc(Cl)cc1)=N[C@@H](CC(=O)NCCCN1CCN(C)CC1)c1nnc(C)n1-2 [RG6146, 2-[(S)-4-(4-chloro-phenyl)-2,3,9-trimethyl-6H-1-thia-5,7,8,9a-tetraaza-cyclopenta[e]azulen-6-yl]-N-[3-(4-methyl-piperazin-1-yl)-propyl]-acetamide] | 0 | 83 | 0.29 | 85 | >100 | 0.008 | 5 out of 10 and 5/10 |
| CC(C)C[C@H](NC(=O)[C@H](Cc1ccccc1)NC(=O)c1cnccn1)B(O)O [bortezomib, [(1R)-3-methyl-1-[[(2S)-3-phenyl-2-(pyrazine-2-carbonylamino)propanoyl]amino]butyl]boronic acid, reference compound] | 0 | 29 | 0.75 | 0 | 60 | 0.34 | 0/10 |
